These results are taken from patent US4374284A, “Antiulcer, antiinflammatory, and antiallergic agent comprising as the main ingredient olean-12-ene-3β, 30-diol which is devoid of side effects of glycyrrhetinic acid and a new process for preparation of olean-12-ene-3β, 30-diol” (Minophagen Pharmaceutical Company, priority 1980, dated 1983).

The conditions of series [1]: higher dosages for a long period, clinical; cited from earlier work.
Series [2] deals with PCA reaction (type I allergy). In words: PCA test (type I allergy). The series is classed as in vivo, male Wister rats. The note with it: serum 1/64, 200 mg/kg intraperitoneally; control 16.4 ± 2.8. Here is the method: (a) PCA--Test (type I allergy)
Male Wister rats weighing […] were shaved at the abdomen. After 24 hours, 0.05 ml of serum diluted with saline (Blood samples were diluted to 1/32 and 1/64; The blood samples were collected from rats 3 weeks after administration of pertussis vaccine and egg albumin.) was injected intradermally at the abdomen. After 48 hours, compounds to be tested were administered intraperitoneally. Two hours thereafter, 0.5 ml./100 g of a solution of antigen and pigment (a solution of 0.4% egg albumin and 0.5% Pontamine sky blue) was administered. After 45 minutes, the rats were decapitated and bled, and the diameter of the pigment-leaking site under the skin was measured to obtain the area.

For series [3], the target named is T1, Δ^4 -5β-reductase for aldosterone in rat liver (Rattus norvegicus, UniProt P31210).
T1 construct: centrifuged again at 105,000 g to obtain Δ^4 -5β-reductase as the supernatant; from tissue; host or cells: rat liver, 105,000 g supernatant (cytosol)
T1 sequence (P31210 1-326): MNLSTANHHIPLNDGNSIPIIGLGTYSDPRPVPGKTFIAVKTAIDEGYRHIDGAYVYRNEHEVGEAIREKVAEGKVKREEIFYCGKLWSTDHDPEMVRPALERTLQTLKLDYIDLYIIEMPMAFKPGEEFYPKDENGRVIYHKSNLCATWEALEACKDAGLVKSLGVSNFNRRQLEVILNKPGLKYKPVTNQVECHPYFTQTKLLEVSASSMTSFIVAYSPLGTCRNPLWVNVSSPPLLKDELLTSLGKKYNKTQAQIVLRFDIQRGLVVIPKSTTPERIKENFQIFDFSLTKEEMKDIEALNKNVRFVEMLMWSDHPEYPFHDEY
In words: inhibitory action on Δ^4-5β-reductase for aldosterone. Type of series: biochemical. Here is the method:
(§1) In vitro experimental results regarding effects of glycyrrhetinic acid (II) and its modified compounds (III), (IV), and (I) on Δ^4 -5α and 5β-reductase for aldosterone in rat liver will be shown below.
(§2) Assay for activity of Δ^4 -5α and 5β-reductase
(§3) (1) Preparation of enzyme solutions
(§4) Rat livers were perfused with saline and excised to prepare a 25% or 50% homogenate with a solution of 0.25 M sucrose and 1 mM EDTA. The homogenate was spun at 10,000 g for 20 minutes to separate supernatant, which was centrifuged again at 105,000 g to obtain Δ^4 -5β-reductase as the supernatant. The pellet was appropriately diluted with a solution of 0.25 M sucrose-1 mM EDTA to use as a 5α-reductase solution.
(§5) (2) Conditions for incubation and assay
(§6) 1 Aldosterone . . . 0.173 μM/0.05 ml ethanol solution
(§7) 2 Glycyrrhetinic acid or its modified compounds . . . 0.173 μM/0.05 ml ethanol solution Control . . . 0.05 ml ethanol solution
(§8) 5α-reductase solution 0.1 ml
(§9) 5β-reductase solution 0.1 ml or 0.2 ml
(§10) 5 Phosphate buffer (0.1 M, pH 7.2) 1 ml
(§11) The components 1 , 2 , 3 , 4 , 5 , and 6 mentioned above were mixed to bring the total volume up to 2.5 ml. The mixture was incubated at 37° C. for 20 minutes. Before the incubation, however, 1 ml aliquot was removed from 2.5 ml of the mixture mentioned above and extracted with 5 ml of methylene dichloride. After the incubation, the remaining 1.5 ml was extracted with 5 ml of methylene dichloride. The optical density of the two methylene dichloride solutions prepared before and after the incubation was measured by a spectrophotometer (Hitachi) at 240 mμ. Inhibition % of Δ^4 -5α and 5β-reductase activity was calculated from the difference in the optical density.

Series [4] addresses T2, Δ^4 -5α-reductase for aldosterone in rat liver (Rattus norvegicus, UniProt P24008).
T2 construct: The pellet was appropriately diluted with a solution of 0.25 M sucrose-1 mM EDTA to use as a 5α-reductase solution; from tissue; host or cells: rat liver, 105,000 g pellet
T2 sequence (P24008 1-259): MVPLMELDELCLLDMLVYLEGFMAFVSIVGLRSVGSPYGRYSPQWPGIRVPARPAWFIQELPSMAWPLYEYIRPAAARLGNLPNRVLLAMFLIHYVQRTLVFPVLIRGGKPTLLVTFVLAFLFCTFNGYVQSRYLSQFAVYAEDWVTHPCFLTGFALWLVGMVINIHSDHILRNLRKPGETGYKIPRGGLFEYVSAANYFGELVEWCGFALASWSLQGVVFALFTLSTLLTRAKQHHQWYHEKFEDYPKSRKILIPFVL
In words: inhibitory action on Δ^4-5α-reductase for aldosterone. Particulars: for inhibition at 0.173 µM: pH 7.2, read-out: 5α-reductase (inhibition %). The series is classed as biochemical. Here is the method:
as §1, §2, §3, §4, §5, §6, §7, §8, §9, §10, §11

For series [5], the system named is aspirin-induced ulcer. In words: rat experiment on aspirin-induced ulcer, pylorus ligated (experiment a). Type of series: in vivo, male Wister rats. The note with it: rat, in vivo. Here is the method: (b) Rat experiment on aspirin-induced ulcer
(a) Experimental procedures:
Male Wister rats weighing about 220 g were made to fast for 24 hours. Water was given freely. The rats were laparotomized under anesthesia with ether. The stomach was drawn out and ligated at the pylorus. Immediately thereafter, 1% CMC suspension of aspirin was administered orally in a dose of 100 mg/kg/5 ml. Aqueous suspensions of compounds to be tested were prepared in the same manner as in the experiment (a) and administered intraduodenally at the same time. The wound was closed and the rats were set free. After 7 hours, the stomach was excised and ulcer was measured in the same manner as in the experiment (a).

Series [6] has as its system ulcers induced by acetic acid. In words: experiments with rats on ulcers induced by acetic acid (chronic gastric ulcers). Type of series: in vivo. Also on record: ulcer value (major axis × minor axis): unit not given here. Particulars: for ulcer value (major axis × minor axis): p.o., 14 days. Here is the method: (c) Experiments with rats on ulcers induced by acetic acid
Chronic gastric ulcers were induced by penetrating 100% acetic acid serosally into gastric wall for 60 sec. using a small cup (6 mm in diameter, 5 mm in height).
From the next day, compounds to be tested were administered orally twice a day (morning and evening) for 14 days. Autopsies were carried out 15 days after the administrations.

Series [7] deals with writhing induced by acetic acid. In words: effect on writhing induced by acetic acid (analgesic action). Particulars: for number of writhing: 200 mg/kg p.o., counted for 10 minutes, control 24.9 ± 1.6, ** p < 0.01. The series is classed as in vivo, male ddY mice. Here is the method:
(b) Effect on writhing induced by acetic acid (analgesic action)
The present compound olean-12-ene-3β, 30-diol (I) was administered orally to male ddY mice weighing 25-27 g. After 30 minutes, saline containing 0.7% acetic acid was administered intraperitoneally. The number of writhings of the mice was counted for 10 minutes from, 10 min. of the administration. Aspirin was used as the reference.

The next series has as its system stress-induced ulcer. In words: mice experiments on stress-induced ulcer (restraint plus water immersion). Type of series: in vivo, male ddY mice. Particulars: for inhibitory effect on stress-induced ulcer (in words): 200 mg/kg. Here is the method: (a) Mice Experiments on stress-induced ulcer Experimental procedures:
Male ddY mice weighing about 20 g were made to fast for 18 hours. Water was given freely. Compounds to be tested were suspended in Tween 80 to prepare an aqueous suspension and administered orally. Immediately thereafter, the mice were subjected to restraint plus water immersion stress (25° C.) for 6 hours. Thereafter, the stomach was excised and fixed by formalin. The degree of ulcer was shown as a total of the length. The control group was given only the solvent.

The test system of series [8] is rat paw edema induced with carrageenin. In words: test on rat paw edema induced with carrageenin (antiinflammatory). Type of series: in vivo, male Wister rats. Particulars: 200 mg/kg p.o., after three hours. Here is the method: (a) Test on rat paw induced with carrageenin
To the plantar side of the hind paw of male Wister rats was administered subcutaneously 0.05 ml/rat of 10% saline solution of carrageenin. Edema after three hours was measured by the volume method and the rate of inhibition was assayed. Compounds were administered orally 30 minutes before administration of carrageenin. [formula]

The test system of series [9] is aspirin-induced ulcer. In words: rat experiment on aspirin-induced ulcer, oral (experiment b). The note with it: 200 mg/kg p.o., after 5 hours; control 0. The series is classed as in vivo, male Wister rats. Here is the method:
(b) Experimental procedures:
Male Wister rats weighing 120-140 g were made to fast for 24 hours, and compounds to be tested were administered orally. After 5 hours, the rats were killed by a blow. The stomach was excised and observed for the presence of ulcer.
The size of ulcer was measured by ulcer index (ulcer length×width mm^2).

Setting [10] is: summary in words, liver reductase.

In the case of `CC1(C)[C@@H](O[C@H]2O[C@H](C(=O)O)[C@@H](O)[C@H](O)[C@H]2O[C@@H]2O[C@H](C(=O)O)[C@@H](O)[C@H](O)[C@H]2O)CC[C@]2(C)[C@H]3C(=O)C=C4[C@@H]5C[C@@](C)(C(=O)O)CC[C@]5(C)CC[C@@]4(C)[C@]3(C)CC[C@@H]12` [Glycyrrhizin], the “side effect (in words)” value in series [1] is “pseudoaldosteronism such as hypertension, hypopotassemia, and edema”.
In series [2], `CC1(C)[C@@H](O)CC[C@]2(C)[C@H]3C(=O)C=C4[C@@H]5C[C@@](C)(C(=O)O)CC[C@]5(C)CC[C@@]4(C)[C@]3(C)CC[C@@H]12` [II, olean-12-ene-11-oxo-3β-ol-30-oic acid, reference compound] registered an area of 7.7 ± 6.5 mm^2. Besides, in series [3] (equimolar to aldosterone (0.173 μM), 37° C., 20 minutes, pH 7.2), the inhibition at 0.173 µM (stock) is 87.7 ± 2.2%. In series [3] (setting [10]), the “effect upon Δ^4 -5α-5β-reductase (in words), 5β” value was “strongly inhibited the activity of the reductase”. Further, the “effect upon Δ^4 -5α-5β-reductase (in words), 5α” value in [4] (setting [10]) is recorded as “strongly inhibited the activity of the reductase”. For the same compound, the “inhibitory effect on aspirin-induced ulcer, experiment (a) (in words)” value in the series with aspirin-induced ulcer [5] is “scarcely showed the effect”. In addition, the “ulcer value (major axis × minor axis)” value in series [6] (Experiment 1, 200 mg/kg (half dose twice/day), control 12.0 ± 2.3) is reported as 10.4 ± 2.7; in [6] (Experiment 1, 400 mg/kg (half dose twice/day), control 12.0 ± 2.3) it was 8.6 ± 2.2; in series [6] (Experiment 2, 200 mg/kg (half dose twice/day), control 8.9 ± 1.7) it was 11.5 ± 2.2; in [6] (Experiment 2, 400 mg/kg (half dose twice/day), control 8.9 ± 1.7) it was 5.8 ± 1.0; in series [6] (Total, 200 mg/kg (half dose twice/day), control 10.4 ± 1.4), 10.9 ± 1.7; in series [6] (Total, 400 mg/kg (half dose twice/day), control 10.4 ± 1.4, * p < 0.05), 7.1 ± 1.2. In [6] (dose of 400 mg), the “inhibitory effect on acetic acid ulcer (in words)” value is recorded as “clearly showed inhibitory effects”. Besides, the number of writhing in series [7] is recorded as 15.2 ± 3.6. In [7] (increasing doses), the “effect on writhing (in words)” value is recorded as “significantly decrease the number of writhing”. In addition, the “inhibitory effect on stress-induced ulcer (in words)” value in the series with stress-induced ulcer is on record as “showed the inhibitory effect”.
Consider `CC1(C)[C@@H](O)CC[C@]2(C)[C@H]3CC=C4[C@@H]5C[C@@](C)(C(=O)O)CC[C@]5(C)CC[C@@]4(C)[C@]3(C)CC[C@@H]12` [III, olean-12-ene-3β-ol-30-oic acid], for which the inhibition at 0.173 µM in series [4] was -0.5 ± 6.6%. Moreover, the “inhibitory effect on stress-induced ulcer (in words)” value in the series on stress-induced ulcer is given as “showed the effect”. The ulcer index with stress-induced ulcer (200 mg/kg p.o., 5th experiment, control 4.13 ± 0.53) turned out to be 3.38 ± 0.79.
As for `CC1(C)[C@@H](O)CC[C@]2(C)[C@H]3C(=O)C=C4[C@@H]5C[C@@](C)(CO)CC[C@]5(C)CC[C@@]4(C)[C@]3(C)CC[C@@H]12` [IV, olean12-ene-11-oxo-3β, 30diol], the inhibition at 0.173 µM in series [4] stood at 26.5 ± 5.6%.
As for `CC(=O)Oc1ccccc1C(=O)O` [aspirin, reference compound], the edema % in [8] (control 71 ± 6) was 17 ± 3%. For the same compound, the inhibition at 200 mg/kg in [8] (Rattus norvegicus, po, 3 h, edema) was determined as 76.1%. Besides, in the series with aspirin-induced ulcer [9], the “ulcer index (ulcer length×width)” value was found to be 7.11 ± 1.1 mm^2. In series [7], this compound had a number of writhing of 0.
